# Measurements from publication PMC5589637, “New perspectives of cobalt tris(bipyridine) system: anti-cancer effect and its collateral sensitivity towards multidrug-resistant (MDR) cancers” (Oncotarget, 2017).
# Columns and labels:
# [1] = tested on: HeLa (cervical cancer) cells; assay: MTT cytotoxicity assay, HeLa; type: cell-based; settings: 72 h
# Description: (§1) All tested compounds were dissolved in DMSO at a final concentration of 50 mmol/L and stored at −20°C before use. Cytotoxicity was assessed by using the 3-(4,5-dimethylthiazol-2-yl)-2, 5-diphenyltetrazolium bromide (MTT) (5.0 mg/ml) assay as previously described. Briefly, 4×10^3 cells per well were seeded in 96-well plates before drug treatments. After overnight culture, the cells were then exposed to different concentrations of selected compounds ([…]) for 72 hours. Cells without drug treatment were used as control. Subsequently, MTT (10 μL) solution was added to each well and incubated at 37°C for 4 hours followed by the addition of 100 μL solubilization buffer (10%SDS in 0.01 mol/L HCl) and overnight incubation. A570 nm was then determined in each well on the next day. The percentage of cell viability was calculated using the following formula: Cell viability (%) = Atreated/Acontrol × 100. Data were obtained from three independent experiments.
# [2] = tested on: MCF-7 (breast cancer) cells; assay: MTT cytotoxicity assay, MCF-7; type: cell-based; settings: MCF-7, MTT, 72 h
# Description: as §1
# [3] = tested on: H1299 (lung cancer) cells; assay: MTT cytotoxicity assay, H1299; type: cell-based, human; settings: 72 h
# Description: as §1
# [4] = tested on: H1975 (EGFR mutant lung cancer) cells; assay: MTT cytotoxicity assay, H1975; type: cell-based; settings: 72 h
# Description: as §1
# [5] = tested on: A549 (EGFR wild-type lung cancer) cells; assay: MTT cytotoxicity assay, A549; type: cell-based; settings: 72 h
# Description: as §1
# [6] = tested on: LLC-1 (mouse lung cancer) cells; assay: MTT cytotoxicity assay, LLC-1; type: cell-based; settings: LLC-1, MTT, 72 h
# Description: as §1
# [7] = tested on: HepG2 (liver cancer) cells; assay: MTT cytotoxicity assay, HepG2; type: cell-based; settings: 72 h
# Description: as §1
# [8] = tested on: Hep3B (liver cancer) cells; assay: MTT cytotoxicity assay, Hep 3B; type: cell-based; settings: 72 h
# Description: as §1
# [9] = tested on: normal human LO2 hepatocytes; assay: MTT cytotoxicity assay, LO2; type: cell-based; settings: 72 h
# Description: as §1
# [10] = tested on: MCF-7 taxol-sensitive cancer cells; assay: MTT cytotoxicity, taxol-sensitive MCF-7; type: cell-based
# Text: (§2) All cells were obtained from the American Type Culture Collection (Rockville, MD, USA) unless otherwise specified. Immortalized wild-type and Atg7-deficient mouse embryonic fibroblasts (MEFs) were kindly provided by Professor Masaaki Komatsu (Juntendo University, School of Medicine, Japan). Taxol-resistant types of MCF-7, HCT-8, A549 cancers cells and cisplatin-resistant SGC7901 cancer cells were purchased from KeyGEN BioTECH, China. Cisplatin-sensitive or –resistant A2780, OV2008 and C13 cancer cells were kindly provided by Prof. Benjamin Tsang (Department of Obstetrics and Gynecology and Department of Cellular and Molecular Medicine, University of Ottawa, Canada). HCT116 p53^+/+ and p53^−/− isogenic human colon cancer cells were kindly provided by Professor Bert Vogelstein (Ludwig Center at Johns Hopkins, Howard Hughes Medical Institute, USA). All media were supplemented with 10% fetal bovine serum and antibiotics penicillin (50 U/ml) and streptomycin (50 μg/ml; Invitrogen, Paisley, Scotland, UK). All cell cultures were incubated at 37°C in a 5% humidified CO2 incubator.
# as §1
# [11] = tested on: MCF-7 taxol-resistant cancer cells; assay: MTT cytotoxicity, taxol-resistant MCF-7; type: cell-based; settings: for Resistant Factor, MCF-7: IC50 of taxol-resistant cells over IC50 of taxol-sensitive cells; for IC50: MCF-7 taxol-resistant, MTT, 72 h
# Text: as §2, §1
# [12] = tested on: HCT-8 taxol-sensitive cancer cells; assay: MTT cytotoxicity, taxol-sensitive HCT-8; type: cell-based; settings: 72 h
# Text: as §2, §1
# [13] = tested on: HCT-8 taxol-resistant cancer cells; assay: MTT cytotoxicity, taxol-resistant HCT-8; type: cell-based; settings: for IC50: HCT-8 taxol-resistant, MTT, 72 h; for Resistant Factor, HCT-8: IC50 of taxol-resistant cells over IC50 of taxol-sensitive cells
# Text: as §2, §1
# [14] = tested on: A549 taxol-sensitive cancer cells; assay: MTT cytotoxicity, taxol-sensitive A549; type: cell-based; settings: 72 h
# Text: as §2, §1
# [15] = tested on: A549 taxol-resistant cancer cells; assay: MTT cytotoxicity, taxol-resistant A549; type: cell-based; settings: for IC50: A549 taxol-resistant, MTT, 72 h; for Resistant Factor, A549: IC50 of taxol-resistant cells over IC50 of taxol-sensitive cells
# Text: as §2, §1
# [16] = tested on: A2780 cisplatin-sensitive cancer cells; assay: MTT cytotoxicity, cisplatin-sensitive A2780; type: cell-based; settings: 72 h
# Text: as §2, §1
# [17] = tested on: A2780 cisplatin-resistant cancer cells; assay: MTT cytotoxicity, cisplatin-resistant A2780; type: cell-based; settings: for IC50: A2780 cisplatin-resistant, MTT, 72 h; for Resistant Factor, A2780: cisplatin-resistant over cisplatin-sensitive IC50, A2780
# Text: as §2, §1
# [18] = tested on: SGC-7901 cisplatin-sensitive cancer cells; assay: MTT cytotoxicity, cisplatin-sensitive SGC-7901; type: cell-based; settings: 72 h
# Text: as §2, §1
# [19] = tested on: SGC-7901 cisplatin-resistant cancer cells; assay: MTT cytotoxicity, cisplatin-resistant SGC-7901; type: cell-based; settings: for IC50: SGC-7901 cisplatin-resistant, MTT, 72 h; for Resistant Factor, SGC-7901: cisplatin-resistant over cisplatin-sensitive IC50, SGC-7901
# Text: as §2, §1
# [20] = tested on: OV2008 (cisplatin-sensitive) cells; assay: MTT cytotoxicity, OV2008 (cisplatin-sensitive); type: cell-based; settings: 72 h, read-out: IC50 value, cisplatin-sensitive cancer, OV2008
# Text: as §2, §1
# [21] = tested on: C13 (cisplatin-resistant) cells; assay: MTT cytotoxicity, C13 (cisplatin-resistant); type: cell-based; settings: for IC50: C13 (cisplatin-resistant), MTT, 72 h, read-out: IC50 value, cisplatin-resistant cancer, C13; for Resistant Factor, OV2008/C13 pair: C13 (resistant) IC50 over OV2008 (sensitive) IC50
# Text: as §2, §1
# [22] = tested on: HCT116 p53^+/+ colon cancer cells; assay: MTT cytotoxicity, HCT116 p53+/+; type: cell-based, human; settings: 72 h
# Text: as §2, §1
# [23] = tested on: HCT116 p53^-/- colon cancer cells; assay: MTT cytotoxicity, HCT116 p53-/-; type: cell-based, human; settings: for IC50: HCT116 p53-/-, MTT, 72 h; for Resistant Factor, HCT116 p53-/- vs p53+/+: IC50 p53-/- over IC50 p53+/+
# Text: as §2, §1
# [24] = tested on: taxol-resistant MCF-7, HCT-8, and A549 cancer cells; assay: MTT cytotoxicity, summary over taxol-sensitive/resistant MCF-7, HCT-8 and A549 pairs; type: cell-based; settings: IC50 of taxol-resistant over taxol-sensitive cells; over MCF-7, HCT-8 and A549
# Description: as §1
# panel of cancer cells = assay: MTT cytotoxicity assay, summary over the panel of cancer cells; type: cell-based; settings: range over the cancer cell lines of Table 1, MTT, 72 h; read-out: mean IC50 values ranged (over the cancer cell lines)
# Description: as §1
Structure (SMILES),IC50 [1] [µM],IC50 [2] [µM],IC50 [3] [µM],IC50 [4] [µM],IC50 [5] [µM],IC50 [6] [µM],IC50 [7] [µM],IC50 [8] [µM],IC50 [9] [µM],IC50 ([10]; 72 h) [µM],"Resistant Factor, MCF-7 [11]",IC50 [11] [µM],IC50 [12] [µM],IC50 [13] [µM],"Resistant Factor, HCT-8 [13]",IC50 [14] [µM],IC50 [15] [µM],"Resistant Factor, A549 [15]",IC50 [16] [µM],IC50 [17] [µM],also measured
"COc1ccnc(-c2cc(OC)ccn2)c1.COc1ccnc(-c2cc(OC)ccn2)c1.COc1ccnc(-c2cc(OC)ccn2)c1.F[P-](F)(F)(F)(F)F.F[P-](F)(F)(F)(F)F.F[P-](F)(F)(F)(F)F.[Co+3] [complex 5, [Co^III(4,4’-(OMe)2-bpy)3](PF6)3]",12.8,10.8,8.71,9.31,18.6,8.71,15.4,5.33,20.6,9.45,0.66,6.28,4.3,1.04,0.24,15,2.85,0.19,24,27,"Resistant Factor, A2780 [17]: 1.13; IC50 [18]: 21.6 µM; IC50 [19]: 20.7 µM; Resistant Factor, SGC-7901 [19]: 0.96; IC50 [20]: 14 µM; IC50 [21]: 20.3 µM; Resistant Factor, OV2008/C13 pair [21]: 1.45; IC50 [22]: 77.8 µM; IC50 [23]: 41.3 µM; Resistant Factor, HCT116 p53-/- vs p53+/+ [23]: 0.53"
"CC(=O)O[C@H]1C(=O)[C@@]2(C)[C@H]([C@H](OC(=O)c3ccccc3)[C@]3(O)C[C@H](OC(=O)[C@H](O)[C@@H](NC(=O)c4ccccc4)c4ccccc4)C(C)=C1C3(C)C)[C@]1(OC(C)=O)CO[C@@H]1C[C@@H]2O [Taxol, reference compound]",–,–,–,–,–,–,–,–,–,–,4.51,–,–,–,>15.9,–,–,42.4,–,–,"IC50 ([10]; Homo sapiens, MCF7, 72 h): 12.2 µM; IC50 ([11]; Homo sapiens, MCF7): 55 µM; IC50 ([12]; Homo sapiens): 12.6 µM; IC50 ([13]; Homo sapiens): > 200 µM; IC50 ([14]; Homo sapiens): 1.56 µM; IC50 ([15]; Homo sapiens): 66.1 µM; resistant factor in taxol-resistant cancers (summary) [24]: up to 42.4"
"CCCCCCCCCc1ccnc(-c2cc(CCCCCCCCC)ccn2)c1.CCCCCCCCCc1ccnc(-c2cc(CCCCCCCCC)ccn2)c1.CCCCCCCCCc1ccnc(-c2cc(CCCCCCCCC)ccn2)c1.F[P-](F)(F)(F)(F)F.F[P-](F)(F)(F)(F)F.F[P-](F)(F)(F)(F)F.[Co+3] [complex 6, [Co^III(4,4’-(C9H19)2-bpy)3](PF6)3]",21.3,37.4,26.7,24.2,82.8,10.4,26,54.1,40.2,28.5,0.39,11.1,56.4,41.1,0.73,54.3,2.6,0.05,30.2,29.1,"IC50 (panel of cancer cells): 10.4 to 82.8 µM; Resistant Factor, A2780 [17]: 0.96; IC50 [18]: 36.3 µM; IC50 [19]: 35.9 µM; Resistant Factor, SGC-7901 [19]: 0.99; IC50 [20]: 49.4 µM; IC50 [21]: 92.6 µM; Resistant Factor, OV2008/C13 pair [21]: 1.87; IC50 [22]: 36.5 µM; IC50 [23]: 34.1 µM; Resistant Factor, HCT116 p53-/- vs p53+/+ [23]: 0.93"
